ChEMBL document CHEMBL2086382, “From bradykinin B2 receptor antagonists to orally active and selective bradykinin B1 receptor antagonists” (J Med Chem, 2012)

Tests used:
Details in all cases: in vivo
[1] = Oral bioavailability in Sprague-Dawley rat at 10 mg/kg; format: ADME, organism-based
[2] = Volume of distribution in Sprague-Dawley rat at 10 mg/kg, po and 1 mg/kg, iv; format: ADME, organism-based
[3] = Volume of distribution in Swiss mouse at 5 mg/kg, po and 1 mg/kg, iv; format: ADME, organism-based
[4] = Oral bioavailability in Swiss mouse at 5 mg/kg; format: ADME, organism-based
[5] = Volume of distribution in Beagle dog at 5 mg/kg, po and 1 mg/kg, iv; format: ADME, organism-based, Canis lupus familiaris
[6] = Oral bioavailability in Beagle dog at 5 mg/kg; format: ADME, organism-based, Canis lupus familiaris

Row | Compound | bioavailability [1] | Vd [2] | Vd [3] | bioavailability [4] | Vd [5] | bioavailability [6]
1 | COc1cc(C)c(S(=O)(=O)N(C)CCOCC(=O)N2CCN(CC3CCN(C)CC3)CC2)c(C)c1 | 16% | 3.5 L/kg | – | – | – | –
2 | COc1cc(C)c(S(=O)(=O)N(C)CCOCC(=O)N2CCC(C(C)(C)CN(C)C)CC2)c(C)c1 | 3.8% | 0.5 L/kg | – | – | – | –
3 | COc1cc(C)c(S(=O)(=O)N(C)CCOCC(=O)N2CCN(C3CCN(C)CC3)CC2)c(C)c1 | 18% | 1.5 L/kg | 1.3 L/kg | 22% | 2.7 L/kg | 43%
4 | COc1cc(C)c(S(=O)(=O)N(C)CCOCC(=O)N2CCN([C@@H]3CN4CCC3CC4)CC2)c(C)c1 | – | – | 1 L/kg | 6.7% | – | –
5 | COc1cc(C)c(S(=O)(=O)N(C)CCOCC(=O)N(C)Cc2ccc(C3=NCCN3)cc2)c(C)c1 [SAFOTIBANT] | 0.3% | 1.4 L/kg | 2.6 L/kg | 12% | – | –

The next lines start with the values.

Row | bioavailability [1] | Vd [2] | Vd [3] | bioavailability [4] | Vd [5] | bioavailability [6] | Compound
6 | 6% | 0.6 L/kg | – | – | – | – | COc1cc(C)c(S(=O)(=O)N(C)CCOCC(=O)N2CCC(N3CCN(C)CC3)CC2)c(C)c1
7 | 19% | 0.79 L/kg | 0.5 L/kg | 38% | – | – | COc1cc(C)c(S(=O)(=O)N(C)CCOCC(=O)N2CCC(CCN(C)C)CC2)c(C)c1
8 | 12.3% | 0.6 L/kg | – | – | – | – | COc1cc(C)c(S(=O)(=O)N(C)CCOCC(=O)N2CCC(C3CCN(C)CC3)CC2)c(C)c1
9 | 12% | 3.8 L/kg | – | – | – | – | CCN1CCC(N2CCN(C(=O)COCCN(C)S(=O)(=O)c3c(C)cc(OC)cc3C)CC2)CC1
